These results are taken from patent US20190201419A1, “COMPOUND AND METHOD FOR THE TREATMENT AND DIAGNOSIS OF NEURODEGENERATIVE CONDITIONS” (Swansea University, priority 2013, published 2019).

Series [1] relates to Islet1+ oculomotor neurons. Nature of the series: In utero injection into the cerebral aqueduct of E11.5 mice. The class given is in vivo, mouse. To be noted: for Number of Islet+ oculomotor neurons in vivo: injected at E11.5, analyzed at E13.5. The source says:
Animals for in-utero injections and tissue preparation. Female wild-type CD-1 mice ([…]; Charles River Breeding Laboratories) were housed, bred, and treated according to the guidelines of the European Communities Council (directive 86/609/EEC) and the Society for Neuroscience (www.sfr.org/handbook), and all experiments were approved by the local ethical committee. Ethical approval for CD-1 mice experimentation was granted by Stockholm Norra Djurförsökselisks Nämnd number N154/06, N273/11 and N370/09, For embryo analyses, wild type CD-1 mice were mated overnight, and noon of the day the plug was considered E0.5. Embryos were dissected out of the uterine horns in ice-cold PBS, fixed in 4% paraformaldehyde (PFA) for 4 h to overnight, cryoprotected in 15-30% sucrose, frozen in Tissue-Tek Optimum Cutting Temperature (OCT) compound (Sakura Fine-Tek) on dry ice, and stored at −80° C. until use. Serial coronal 14-μm sections of the brain were obtained on a cryostat.
Immunohistochemical analysis of sections. Ten sets of 14 μm serial coronal sections were cut on a cryostat. No. 1 and 6 sets were subjected to immunohistochemistry. Sections were pre-incubated for 1 h in blocking solution followed by incubation at 4° C. overnight with following primary antibodies: anti-TH (1:750, Pel-Freeze), anti-Islet-1 (1:100; Developmental Studies Hybridoma Bank), anti-cleaved caspase-3 (Asp175) (1:100; Cell Signaling Technology). After washing, slides were incubated for 1-2 h at room temperature with the appropriate fluorophore-conjugated (Cy2-, Cy5-, 1:300, Jackson Laboratories; Alexa488-, 555-, and 647-, 1:1000, Invitrogen) secondary antibodies. Confocal pictures were taken with a Zeiss LSM5 Exciter or LSM700 microscope.
In utero intraventricular injections. E11.5 pregnant females were deeply anesthetized using Isofluorane (IsoFlo®, Abbott Labs) and the uterine horns were accessed through an abdominal incision. 1 μL, of the different cholestenoic acids studied (5 mM) or vehicle solution (isopropanol, 50% v/v) was injected into the cerebral aqueduct. […] Embryos were analyzed 48 h later.

Series [2] concerns Islet1+ oculomotor neurons. Nature of the series: Islet1+ cells in mouse E11.5 brain primary cultures. The class given is cell-based. To be noted: for Number of Islet1+ cells / Concentration giving significant difference from vehicle in Islet1+ cells: wild type cultures; for Concentration giving significant difference from vehicle in Islet1+ cells: p<0.05. Put shortly:
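E11.5 mouse brain cells were plated on poly-D-lysine at 150,000 cells/cm^2 in serum-free N2 medium and treated for 3 DIV. After PFA fixation they were immunostained for cleaved caspase-3, Islet-1, TH, GABA, Brn3a, Nkx6.1 or ChAT. Marker-positive cells were counted at 20× in eight fields per well, three wells per experiment, across three experiments.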

The target in series [3] is T1, Lxrα (Homo sapiens, UniProt Q13133).
T1 construct: expressed in transfected cells; host or cells: SN4741 mouse neuronal cell line
T1 sequence (Q13133 1-447): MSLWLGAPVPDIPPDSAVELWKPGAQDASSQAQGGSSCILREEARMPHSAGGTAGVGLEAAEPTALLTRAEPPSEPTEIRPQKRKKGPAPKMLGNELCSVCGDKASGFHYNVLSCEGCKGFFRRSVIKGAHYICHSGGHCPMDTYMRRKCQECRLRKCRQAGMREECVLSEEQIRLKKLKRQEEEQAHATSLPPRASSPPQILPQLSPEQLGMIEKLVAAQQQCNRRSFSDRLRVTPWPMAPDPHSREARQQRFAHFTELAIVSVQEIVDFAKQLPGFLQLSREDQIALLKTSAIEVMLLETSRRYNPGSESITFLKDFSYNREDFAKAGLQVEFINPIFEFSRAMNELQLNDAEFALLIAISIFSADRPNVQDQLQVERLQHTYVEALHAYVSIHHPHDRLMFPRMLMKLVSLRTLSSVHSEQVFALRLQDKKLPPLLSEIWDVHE
Nature of the series: Lxrα luciferase reporter assay in SN4741 neural cells. Format: cell-based, mouse. To be noted: 10 μM, 24 h. An excerpt: Luciferase Reporter Assay.
A general note: Reporter assays use an easily measured gene product as a stand-in for the process of interest.

The subject of series [4] is zebrafish embryos. Nature of the series: Survival of transgenic zebrafish embryos on compound exposure. The class given is in vivo. As to the method:
Zebrafish Strain and Maintenance Zebrafish were raised on a 14/10 h day/night cycle and were kept at 28.5 ° C. Islet-1:GFP transgenic embryos were obtained via natural spawning and staged in hours or days post fertilization (hpf and dpt) according to Kimmel et al). Embryos older than 24 hpf were treated with 0.03% phenylthiourea (PTU) to inhibit pigmentation. MO injections were performed using splice site specific zebrafish lxi MO MO injected embryos were immediately dechorionated and transferred to a 96 well plate and exposed to dimethyl sulfoxide (DMSO) treated or ligand treated medium. Compound Exposure. Islet-1:GFP embryos were collected by natural mating and immediately (at 1 cell stage) dechorionated and transferred to a 96 well plate. Each of the compounds tested were obtained as 10 mM stock and diluted in embryo medium to a final concentration of 10 μM, and 200 μL was added to each well. DMSO or propan-2-ol treated embryo medium was taken as control. Ligand solutions were replaced every 12 h with fresh ligand solution prepared in PTU treated embryo medium. Embryos were collected at 48 hpf, fixed for 4 h at room temperature with 4% paraformaldehyde and then washed and kept in PBST. Immunocytochemistry was performed using an anti-GFP antibody and fluorescence was viewed and photographed using a Zeiss Axioplan compound microscope and a Zeiss Axiocam digital camera.

Regarding `CC(CCC[C@@H](C)[C@H]1CC[C@H]2[C@@H]3[C@H](O)C=C4C[C@@H](O)CC[C@]4(C)[C@H]3CC[C@]12C)C(=O)O` (stereo partly drawn) [3β,7α-diHCA, 3β,7α-dihydroxycholest-5-en-26-oic acid], in series [1] (co-injection with 3β-HCA), the “Effect of co-injection on the reduction of oculomotor neurons by 3β-HCA” value is given as “this effect was eliminated by co-injection of 3β,7α-diHCA”. Besides, the “Number of Islet+ oculomotor neurons in vivo” value in series [1] is “an increase in the number of Islet+ oculomotor neurons”. In series [2] (10 μM), the “Rescue of loss of Islet1+ cells induced by 2 μM 3β,7β-diHCA or 3β-HCA” value is “reversed the loss of Islet1+ cells”. Also, the “Effect on Islet1+ cells in Lxrα−/−β−/− cultures” value in series [2] (cultures from Lxrα−/−β−/− mice) is given as “eliminated”. In addition, in series [2], the “Number of Islet1+ cells” value is “increased the number of Islet1+ oculomotor cells in the cultures” and the “Concentration giving significant difference from vehicle in Islet1+ cells” value was ≥ 5 µM. Further, the “Effect on Islet1+ cells with Lxr antagonist GGPP” value in series [2] (wt cultures, 10 μM GGPP) is “blocked by the Lxr antagonist GGPP”. In addition, the “Lxrα activation, luciferase activity (fold activation)” value in series [3] is on record as “have the ability to activate both Lxrs”.

`CC(CCC[C@@H](C)[C@H]1CC[C@H]2[C@@H]3CC=C4C[C@@H](O)CC[C@]4(C)[C@H]3CC[C@]12C)C(=O)O` (stereo partly drawn) [3β-HCA, 3β-hydroxycholest-5-en-26-oic acid]: in series [1], the “Number of Islet+ oculomotor neurons in vivo” value is recorded as “the number of oculomotor neurons was reduced”. Besides, in series [4], the “Toxic effect on survival of the fish” value is “had a deleterious toxic effect which impaired the survival of the fish”. In addition, in series [2], the “Number of Islet1+ cells” value is “caused the loss of Islet1+ cells in the cultures” and the “Concentration giving significant difference from vehicle in Islet1+ cells” value is ≥ 2 µM. For the same compound, in series [3], the “Lxrα activation, luciferase activity (fold activation)” value is given as “activates Lxr”.
